Results: US9637483B2, “Heterocyclic compound” (TAKEDA PHARMACEUTICAL COMPANY LIMITED, priority 2013, dated 2017)

What was measured:
Assay type in all cases: biochemical
JAK1 = target: T1, JAK1 (Homo sapiens, UniProt P23458); assay: JAK1 enzyme inhibition test (LANCE method); conditions: 1 μM test compound; for inhibition at 1 µM: read-out: JAK1 enzyme inhibitory activity (%, 1 μM)
T1 construct: purchased Invitrogen
Outline: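 Inhibition expressed against no-enzyme wells (100% inhibition), from time-resolved fluorescence at 665 nm after Eu-anti-phosphotyrosine antibody/EDTA detection. Kinase reaction ran 1 h at room temperature, pH 7.5 HEPES buffer, ULight-JAK1 substrate and ATP diluted to 300 nM and 150 μM before addition.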

JAK2 = target: T2, JAK2 (Homo sapiens, UniProt O60674); assay: JAK2 enzyme inhibition test (LANCE method); conditions: 1 μM test compound; for inhibition at 1 µM: read-out: JAK2 enzyme inhibitory activity (%, 1 μM)
T2 construct: purchased Invitrogen
Outline: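 TR-FRET (LANCE) read-out, ex 340/em 665 nm with 100 μs delay, after 1 hr room-temperature detection with europium anti-phosphotyrosine antibody and 20 mM EDTA. The preceding 1 hr kinase reaction combined JAK2, ULight-JAK1 substrate and ATP, added as 6 ng/mL, 300 nM and 45 μM solutions; enzyme-free wells defined 100% inhibition.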

JAK3 = target: T3, JAK3 (Homo sapiens, UniProt P52333); assay: JAK3 enzyme inhibition test (LANCE method); conditions: 1 μM test compound; for inhibition at 1 µM: read-out: JAK3 enzyme inhibitory activity (%, 1 μM)
T3 construct: purchased Invitrogen
T3 sequence (P52333 1-1124): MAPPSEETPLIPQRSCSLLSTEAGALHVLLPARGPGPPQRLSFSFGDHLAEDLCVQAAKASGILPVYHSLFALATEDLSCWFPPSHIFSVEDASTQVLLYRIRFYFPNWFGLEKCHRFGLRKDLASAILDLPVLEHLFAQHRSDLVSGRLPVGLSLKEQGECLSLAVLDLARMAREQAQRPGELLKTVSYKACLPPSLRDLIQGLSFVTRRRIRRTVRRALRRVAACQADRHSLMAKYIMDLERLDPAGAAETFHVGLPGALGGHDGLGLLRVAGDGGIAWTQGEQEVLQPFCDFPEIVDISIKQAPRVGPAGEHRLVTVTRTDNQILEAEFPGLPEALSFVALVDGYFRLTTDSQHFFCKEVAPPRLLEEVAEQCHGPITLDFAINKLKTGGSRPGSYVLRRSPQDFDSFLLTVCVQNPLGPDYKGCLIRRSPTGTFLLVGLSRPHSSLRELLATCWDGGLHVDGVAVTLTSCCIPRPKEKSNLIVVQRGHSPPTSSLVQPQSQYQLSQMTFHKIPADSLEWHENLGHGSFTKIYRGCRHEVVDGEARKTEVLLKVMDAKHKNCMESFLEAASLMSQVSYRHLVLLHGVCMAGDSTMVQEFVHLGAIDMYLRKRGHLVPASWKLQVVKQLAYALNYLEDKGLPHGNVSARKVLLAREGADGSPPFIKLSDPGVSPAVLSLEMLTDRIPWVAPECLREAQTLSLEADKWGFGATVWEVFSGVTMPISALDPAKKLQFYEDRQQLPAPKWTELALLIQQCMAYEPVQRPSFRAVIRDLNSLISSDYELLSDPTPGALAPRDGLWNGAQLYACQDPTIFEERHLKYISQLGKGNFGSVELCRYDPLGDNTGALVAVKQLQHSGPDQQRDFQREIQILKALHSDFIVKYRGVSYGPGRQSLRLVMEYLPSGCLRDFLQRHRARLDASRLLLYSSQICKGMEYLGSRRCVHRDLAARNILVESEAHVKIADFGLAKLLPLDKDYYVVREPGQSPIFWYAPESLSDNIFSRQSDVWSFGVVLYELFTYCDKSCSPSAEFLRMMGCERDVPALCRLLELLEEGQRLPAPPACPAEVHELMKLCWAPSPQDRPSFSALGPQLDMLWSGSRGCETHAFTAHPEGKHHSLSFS
Outline: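 TR-FRET (LANCE) read: 1 h room-temperature reaction, EDTA quench, Eu-anti-phosphotyrosine antibody, emission 665 nm after 340 nm excitation. Added solutions held 12 ng/mL JAK3, 300 nM ULight-JAK1 substrate and 15 μM ATP (pH 7.5 HEPES). Activity expressed against no-enzyme wells defined as full inhibition.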

TYK2 = target: T4, TYK2 (Homo sapiens, UniProt P29597); assay: TYK2 enzyme inhibition test (LANCE method); conditions: 1 μM test compound; for inhibition at 1 µM: read-out: TYK2 enzyme inhibitory activity (%, 1 μM)
T4 construct: purchased Invitrogen
Outline: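 TR-FRET (LANCE) readout: after 1 h room-temperature kinase reaction, EDTA plus 4 nM Eu-labelled anti-phosphotyrosine antibody added, signal at 665 nm (340 nm excitation). Reaction combined TYK2, ULight-JAK1 substrate and ATP, prepared at 375 ng/mL, 300 nM and 30 μM before addition, in pH 7.5 HEPES/MgCl2 buffer; enzyme-free wells define full inhibition.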

T4 sequence (P29597 whole entry): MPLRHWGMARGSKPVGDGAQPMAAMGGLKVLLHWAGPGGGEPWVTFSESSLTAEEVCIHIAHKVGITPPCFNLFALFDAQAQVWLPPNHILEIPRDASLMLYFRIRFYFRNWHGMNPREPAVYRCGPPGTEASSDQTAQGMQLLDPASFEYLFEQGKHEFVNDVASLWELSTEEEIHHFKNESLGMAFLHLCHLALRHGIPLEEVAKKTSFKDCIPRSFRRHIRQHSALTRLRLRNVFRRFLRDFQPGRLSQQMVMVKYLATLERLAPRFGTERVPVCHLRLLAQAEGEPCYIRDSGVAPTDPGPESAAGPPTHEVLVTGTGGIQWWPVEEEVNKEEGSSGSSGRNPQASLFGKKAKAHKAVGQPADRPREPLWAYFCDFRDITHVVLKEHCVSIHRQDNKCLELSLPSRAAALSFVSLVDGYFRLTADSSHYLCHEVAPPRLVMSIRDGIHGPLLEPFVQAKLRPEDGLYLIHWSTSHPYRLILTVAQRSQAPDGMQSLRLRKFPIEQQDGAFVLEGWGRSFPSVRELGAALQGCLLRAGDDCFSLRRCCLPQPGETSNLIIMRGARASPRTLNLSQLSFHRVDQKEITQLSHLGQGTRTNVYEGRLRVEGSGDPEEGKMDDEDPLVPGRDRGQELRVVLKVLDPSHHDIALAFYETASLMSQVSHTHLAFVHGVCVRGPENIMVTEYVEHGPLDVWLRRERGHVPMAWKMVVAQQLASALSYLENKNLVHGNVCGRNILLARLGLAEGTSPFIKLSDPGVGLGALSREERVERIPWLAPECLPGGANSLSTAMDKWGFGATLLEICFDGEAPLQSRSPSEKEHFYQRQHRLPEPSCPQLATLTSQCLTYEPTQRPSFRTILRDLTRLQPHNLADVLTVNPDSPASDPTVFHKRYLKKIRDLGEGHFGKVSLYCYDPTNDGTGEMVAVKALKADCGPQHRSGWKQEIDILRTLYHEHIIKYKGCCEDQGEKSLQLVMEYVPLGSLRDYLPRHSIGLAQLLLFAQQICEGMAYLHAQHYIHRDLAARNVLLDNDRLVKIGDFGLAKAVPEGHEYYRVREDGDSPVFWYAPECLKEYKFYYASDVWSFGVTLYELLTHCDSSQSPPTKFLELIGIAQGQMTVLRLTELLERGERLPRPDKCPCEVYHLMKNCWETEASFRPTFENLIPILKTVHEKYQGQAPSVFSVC
T1 sequence (P23458 whole entry): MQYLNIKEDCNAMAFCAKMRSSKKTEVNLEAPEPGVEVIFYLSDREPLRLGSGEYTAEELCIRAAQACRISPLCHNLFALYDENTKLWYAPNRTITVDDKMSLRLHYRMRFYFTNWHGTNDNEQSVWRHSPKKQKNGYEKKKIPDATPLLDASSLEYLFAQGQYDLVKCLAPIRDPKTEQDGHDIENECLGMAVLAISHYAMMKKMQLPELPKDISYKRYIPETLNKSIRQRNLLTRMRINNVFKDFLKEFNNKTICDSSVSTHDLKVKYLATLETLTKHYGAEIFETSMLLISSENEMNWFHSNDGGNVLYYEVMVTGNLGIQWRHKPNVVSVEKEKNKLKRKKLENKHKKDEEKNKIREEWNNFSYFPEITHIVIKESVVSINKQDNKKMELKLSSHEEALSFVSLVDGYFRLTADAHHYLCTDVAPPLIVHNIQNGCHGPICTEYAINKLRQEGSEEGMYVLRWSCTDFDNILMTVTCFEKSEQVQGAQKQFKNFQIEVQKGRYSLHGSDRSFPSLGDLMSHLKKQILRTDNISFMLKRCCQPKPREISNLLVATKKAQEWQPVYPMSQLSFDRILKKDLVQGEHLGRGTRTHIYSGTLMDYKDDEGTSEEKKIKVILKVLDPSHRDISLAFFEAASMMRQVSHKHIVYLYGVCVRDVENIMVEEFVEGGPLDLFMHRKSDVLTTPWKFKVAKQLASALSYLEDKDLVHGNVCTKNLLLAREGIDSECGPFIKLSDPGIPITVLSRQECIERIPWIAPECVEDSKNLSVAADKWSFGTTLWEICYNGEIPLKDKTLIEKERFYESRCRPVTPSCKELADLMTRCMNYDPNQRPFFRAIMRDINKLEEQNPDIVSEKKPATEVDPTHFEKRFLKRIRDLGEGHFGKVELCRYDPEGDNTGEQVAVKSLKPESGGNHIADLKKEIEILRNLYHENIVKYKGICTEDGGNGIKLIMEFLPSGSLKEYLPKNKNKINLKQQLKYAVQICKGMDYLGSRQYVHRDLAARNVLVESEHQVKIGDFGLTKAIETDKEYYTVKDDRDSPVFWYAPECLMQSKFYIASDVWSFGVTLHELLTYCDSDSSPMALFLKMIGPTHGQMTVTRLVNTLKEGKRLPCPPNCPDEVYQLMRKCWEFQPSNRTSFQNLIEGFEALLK
T2 sequence (O60674 whole entry): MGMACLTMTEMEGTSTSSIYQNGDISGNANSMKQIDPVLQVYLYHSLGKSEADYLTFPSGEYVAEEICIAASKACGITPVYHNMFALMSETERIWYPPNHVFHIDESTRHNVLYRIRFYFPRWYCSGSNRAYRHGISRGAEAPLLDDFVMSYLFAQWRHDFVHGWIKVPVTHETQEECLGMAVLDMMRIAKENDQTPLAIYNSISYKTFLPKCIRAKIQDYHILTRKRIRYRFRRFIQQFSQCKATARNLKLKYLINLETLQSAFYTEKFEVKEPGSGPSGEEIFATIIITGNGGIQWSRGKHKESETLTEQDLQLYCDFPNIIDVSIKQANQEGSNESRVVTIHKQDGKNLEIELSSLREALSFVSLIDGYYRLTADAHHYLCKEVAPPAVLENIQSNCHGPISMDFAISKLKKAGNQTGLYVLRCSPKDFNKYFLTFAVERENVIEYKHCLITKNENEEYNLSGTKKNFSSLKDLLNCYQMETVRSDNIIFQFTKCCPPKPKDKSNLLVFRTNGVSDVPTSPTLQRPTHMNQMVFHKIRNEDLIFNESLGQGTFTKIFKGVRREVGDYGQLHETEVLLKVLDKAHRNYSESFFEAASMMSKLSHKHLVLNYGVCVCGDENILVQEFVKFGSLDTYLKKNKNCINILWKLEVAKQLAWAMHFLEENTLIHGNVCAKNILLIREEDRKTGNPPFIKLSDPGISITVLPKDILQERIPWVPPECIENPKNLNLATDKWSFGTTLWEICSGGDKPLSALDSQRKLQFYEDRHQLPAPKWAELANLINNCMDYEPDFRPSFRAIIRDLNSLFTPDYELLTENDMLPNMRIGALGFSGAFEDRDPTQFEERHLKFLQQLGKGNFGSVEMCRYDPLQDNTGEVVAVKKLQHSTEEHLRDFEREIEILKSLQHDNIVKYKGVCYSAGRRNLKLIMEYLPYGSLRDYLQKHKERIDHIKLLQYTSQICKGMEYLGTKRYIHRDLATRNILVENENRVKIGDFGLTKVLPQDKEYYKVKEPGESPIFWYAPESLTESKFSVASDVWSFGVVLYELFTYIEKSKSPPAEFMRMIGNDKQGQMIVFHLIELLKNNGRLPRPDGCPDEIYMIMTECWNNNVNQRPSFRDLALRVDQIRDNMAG

| JAK1 enzyme inhibitory activity (%, 1 μM) (JAK1) [%] | JAK2 enzyme inhibitory activity (%, 1 μM) (JAK2) [%] | JAK3 enzyme inhibitory activity (%, 1 μM) (JAK3) [%] | TYK2 enzyme inhibitory activity (%, 1 μM) (TYK2) [%] | inhibition at 1 µM (JAK1) [%] | inhibition at 1 µM (JAK2) [%] | inhibition at 1 µM (JAK3) [%] | inhibition at 1 µM (TYK2) [%] | Compound |
| --- | --- | --- | --- | --- | --- | --- | --- | --- |
|  |  |  |  | 100 | 99 | 100 | 100 | CN(C)[C@@H]1CCN(c2cc(-c3cn(C(C4CC4)C4CC4)c(=O)c4c(N)n[nH]c34)nn2C)C1 [Example 156, 3-amino-5-(dicyclopropylmethyl)-7-(5-((3R)-3-(dimethylamino)pyrrolidin-1-yl)-1-methyl-1H-pyrazol-3-yl)-1,5-dihydro-4H-pyrazolo[4,3-c]pyridin-4-one] |
|  |  |  |  | 99 | 99 | 100 | 101 | Cn1nc(-c2cn(C(C3CC3)C3CC3)c(=O)c3c(N)n[nH]c23)cc1N1CCC[C@@H]1CO [Example 157, 3-amino-5-(dicyclopropylmethyl)-7-(5-((2R)-2-(hydroxymethyl)pyrrolidin-1-yl)-1-methyl-1H-pyrazol-3-yl)-1,5-dihydro-4H-pyrazolo[4,3-c]pyridin-4-one] |
|  |  |  |  | 92 | 99 | 100 | 101 | Cn1nc(-c2cn(C(C3CC3)C3CC3)c(=O)c3c(N)n[nH]c23)cc1N1CCC[C@@H]1CN1CCCC1 [Example 158, 3-amino-5-(dicyclopropylmethyl)-7-(1-methyl-5-((2R)-2-(pyrrolidin-1-ylmethyl)pyrrolidin-1-yl)-1H-pyrazol-3-yl)-1,5-dihydro-4H-pyrazolo[4,3-c]pyridin-4-one] |
|  |  |  |  | 100 | 100 | 100 | 101 | Cn1nc(-c2cn(C(C3CC3)C3CC3)c(=O)c3c(N)n[nH]c23)cc1N1CCN2CCC[C@@H]2C1 [Example 163, 3-amino-5-(dicyclopropylmethyl)-7-(5-((8aR)-hexahydropyrrolo[1,2-a]pyrazin-2(1H)-yl)-1-methyl-1H-pyrazol-3-yl)-1,5-dihydro-4H-pyrazolo[4,3-c]pyridin-4-one] |
|  |  |  |  | 100 | 99 | 100 | 101 | Cn1nc(-c2cn(C(C3CC3)C3CC3)c(=O)c3c(N)n[nH]c23)cc1N1CC[C@H](O)C1 [Example 166, 3-amino-5-(dicyclopropylmethyl)-7-(5-((3S)-3-hydroxypyrrolidin-1-yl)-1-methyl-1H-pyrazol-3-yl)-1,5-dihydro-4H-pyrazolo[4,3-c]pyridin-4-one] |
|  |  |  |  | 100 | 99 | 100 | 101 | CO[C@H]1CCN(c2cc(-c3cn(C(C4CC4)C4CC4)c(=O)c4c(N)n[nH]c34)nn2C)C1 [Example 167, 3-amino-5-(dicyclopropylmethyl)-7-(5-((3S)-3-methoxypyrrolidin-1-yl)-1-methyl-1H-pyrazol-3-yl)-1,5-dihydro-4H-pyrazolo[4,3-c]pyridin-4-one] |

Further lines, the compound ahead of its results:

| Compound | JAK1 enzyme inhibitory activity (%, 1 μM) (JAK1) [%] | JAK2 enzyme inhibitory activity (%, 1 μM) (JAK2) [%] | JAK3 enzyme inhibitory activity (%, 1 μM) (JAK3) [%] | TYK2 enzyme inhibitory activity (%, 1 μM) (TYK2) [%] | inhibition at 1 µM (JAK1) [%] | inhibition at 1 µM (JAK2) [%] | inhibition at 1 µM (JAK3) [%] | inhibition at 1 µM (TYK2) [%] |
| --- | --- | --- | --- | --- | --- | --- | --- | --- |
| CC1CCCCC1n1cc(-c2cc(N3CCOCC3)n(C)n2)c2[nH]nc(N)c2c1=O (stereo not drawn) [Example 154, 3-amino-5-(2-methylcyclohexyl)-7-(1-methyl-5-(morpholin-4-yl)-1H-pyrazol-3-yl)-1,5-dihydro-4H-pyrazolo[4,3-c]pyridin-4-one] | 97 | 98 | 100 | 102 |  |  |  |  |
| CC1CCCCC1n1cc(-c2cc(N3CCOCC3)n(C)n2)c2[nH]nc(N)c2c1=O (stereo not drawn) [Example 155, 3-amino-5-(2-methylcyclohexyl)-7-(1-methyl-5-(morpholin-4-yl)-1H-pyrazol-3-yl)-1,5-dihydro-4H-pyrazolo[4,3-c]pyridin-4-one] | 76 | 81 | 98 | 101 |  |  |  |  |
| COC[C@H]1CCCN1c1cc(-c2cn(C(C3CC3)C3CC3)c(=O)c3c(N)n[nH]c23)nn1C [Example 159, 3-amino-5-(dicyclopropylmethyl)-7-(5-((2R)-2-(methoxymethyl)pyrrolidin-1-yl)-1-methyl-1H-pyrazol-3-yl)-1,5-dihydro-4H-pyrazolo[4,3-c]pyridin-4-one] |  |  |  |  | 99 | 99 | 100 | 100 |
| CN(C)[C@H]1CCN(c2cc(-c3cn(C(C4CC4)C4CC4)c(=O)c4c(N)n[nH]c34)nn2C)C1 [Example 160, 3-amino-5-(dicyclopropylmethyl)-7-(5-((3S)-3-(dimethylamino)pyrrolidin-1-yl)-1-methyl-1H-pyrazol-3-yl)-1,5-dihydro-4H-pyrazolo[4,3-c]pyridin-4-one] |  |  |  |  | 99 | 100 | 100 | 100 |
| Cn1nc(-c2cn(C(C3CC3)C3CC3)c(=O)c3c(N)n[nH]c23)cc1C1CC1 [Example 161, 3-amino-7-(5-cyclopropyl-1-methyl-1H-pyrazol-3-yl)-5-(dicyclopropylmethyl)-1,5-dihydro-4H-pyrazolo[4,3-c]pyridin-4-one] |  |  |  |  | 100 | 99 | 100 | 100 |
| Cn1nc(-c2cn(C(C3CC3)C3CC3)c(=O)c3c(N)n[nH]c23)cc1N1CCN2CCC[C@H]2C1 [Example 162, 3-amino-5-(dicyclopropylmethyl)-7-(5-((8aS)-hexahydropyrrolo[1,2-a]pyrazin-2(1H)-yl)-1-methyl-1H-pyrazol-3-yl)-1,5-dihydro-4H-pyrazolo[4,3-c]pyridin-4-one] |  |  |  |  | 99 | 100 | 100 | 101 |
| CO[C@@H]1CCN(c2cc(-c3cn(C(C4CC4)C4CC4)c(=O)c4c(N)n[nH]c34)nn2C)C1 [Example 164, 3-amino-5-(dicyclopropylmethyl)-7-(5-((3R)-3-methoxypyrrolidin-1-yl)-1-methyl-1H-pyrazol-3-yl)-1,5-dihydro-4H-pyrazolo[4,3-c]pyridin-4-one] |  |  |  |  | 99 | 99 | 100 | 101 |
| Cn1nc(-c2cn(C(C3CC3)C3CC3)c(=O)c3c(N)n[nH]c23)cc1C(F)(F)F [Example 165, 3-amino-5-(dicyclopropylmethyl)-7-(1-methyl-5-(trifluoromethyl)-1H-pyrazol-3-yl)-1,5-dihydro-4H-pyrazolo[4,3-c]pyridin-4-one] |  |  |  |  | 100 | 98 | 100 | 100 |
| Cn1nc(-c2cn(C(C3CC3)C3CC3)c(=O)c3c(N)n[nH]c23)cc1N1CCC[C@H]1CO [Example 168, 3-amino-5-(dicyclopropylmethyl)-7-(5-((2S)-2-(hydroxymethyl)pyrrolidin-1-yl)-1-methyl-1H-pyrazol-3-yl)-1,5-dihydro-4H-pyrazolo[4,3-c]pyridin-4-one] |  |  |  |  | 98 | 94 | 100 | 101 |
